Laboratory results: EPA's CvTdb concentration-time database

Experiments:
rat [1] = assay: concentration in blood after dosing; negative times count back from the end of exposure; conditions: dosed: trichloroethylene, 50 ppm, inhalation, duration: 4 hr, male, Sprague Dawley
Rat [2] = assay: concentration in plasma after dosing; conditions: dosed: 2-Hydroxy-4-methoxybenzophenone, 500 mg/kg, oral, Male, F344
Mouse [3] = assay: concentration in plasma after dosing; conditions: 2 h; dosed: 2-Hydroxy-4-methoxybenzophenone; 500 mg/kg; oral; Male; B6C3F1
Mouse [4] = assay: concentration in plasma after dosing; conditions: 10 min; dosed: 2-Hydroxy-4-methoxybenzophenone; 500 mg/kg; oral; Male; B6C3F1
Rat [5] = assay: concentration in plasma after dosing; conditions: 0.25 h; dosed: 2-Hydroxy-4-methoxybenzophenone; 500 mg/kg; oral; Male; F344
Mouse [6] = assay: concentration in plasma after dosing; conditions: 3 h; dosed: 2-Hydroxy-4-methoxybenzophenone; 50 mg/kg; iv; Female; B6C3F1
Rat [7] = assay: concentration in plasma after dosing; conditions: 1.5 h; dosed: Primidone; 130 mg/kg; oral; Female; F344
Rat [8] = assay: concentration in plasma after dosing; conditions: 0.5 h; dosed: Primidone; 130 mg/kg; oral; Male; Harlan Sprague Dawley
Rat [9] = assay: concentration in plasma after dosing; conditions: dosed: 2,4-Dichlorophenoxyacetic acid, 7.0 mg/kg, oral, Male, Sprague-Dawley
Mouse [10] = assay: concentration in plasma after dosing; conditions: dosed: 2,4-Dichlorophenoxyacetic acid, 2.0 mg/kg, oral, Male, B6C3F1
Mouse [11] = assay: concentration in plasma after dosing; conditions: dosed: 2,4-Dichlorophenoxyacetic acid, 1.0 mg/kg, iv, Male, B6C3F1
Rat [12] = assay: concentration in plasma after dosing; conditions: 10 min; dosed: alpha-Thujone; 25 mg/kg; oral; Male; Harlan Sprague Dawley
Rat [13] = assay: concentration in plasma after dosing; conditions: 12 h; dosed: alpha-Thujone; 25 mg/kg; oral; Male; Harlan Sprague Dawley
Rat [14] = assay: concentration in brain after dosing; conditions: 10 min; dosed: alpha-Thujone; 25 mg/kg; oral; Male; Harlan Sprague Dawley
Rat [15] = assay: concentration in brain after dosing; conditions: 0.5 h; dosed: alpha-Thujone; 50 mg/kg; oral; Male; Harlan Sprague Dawley
Rat [16] = assay: concentration in plasma after dosing; conditions: 2 min; dosed: alpha-Thujone; 25 mg/kg; oral; Male; Harlan Sprague Dawley
Rat [17] = assay: concentration in plasma after dosing; conditions: 5 min; dosed: alpha-Thujone; 25 mg/kg; oral; Male; Harlan Sprague Dawley
Rat [18] = assay: concentration in brain after dosing; conditions: 1.5 h; dosed: alpha-Thujone; 25 mg/kg; oral; Male; Harlan Sprague Dawley
Rat [19] = assay: concentration in brain after dosing; conditions: 3 h; dosed: alpha-Thujone; 50 mg/kg; oral; Female; Harlan Sprague Dawley
Rat [20] = assay: concentration in kidney after dosing; conditions: 3 h; dosed: Perfluorohexane-1-sulphonic acid – potassium salt; 16 mg/kg; oral; Female; Harlan Sprague Dawley
Rat [21] = assay: concentration in kidney after dosing; conditions: 6 h; dosed: Perfluorohexane-1-sulphonic acid – potassium salt; 16 mg/kg; oral; Female; Harlan Sprague Dawley
Rat [22] = assay: concentration in brain after dosing; conditions: 24 h; dosed: Perfluorohexane-1-sulphonic acid – potassium salt; 16 mg/kg; oral; Female; F344
Rat [23] = assay: concentration in kidney after dosing; conditions: 6 h; dosed: Perfluorohexane-1-sulphonic acid – potassium salt; 16 mg/kg; oral; Female; F344
Rat [24] = assay: concentration in kidney after dosing; conditions: 192 h; dosed: Perfluorohexane-1-sulphonic acid – potassium salt; 16 mg/kg; oral; Female; Harlan Sprague Dawley
Rat [25] = assay: concentration in liver after dosing; conditions: 24 h; dosed: Perfluorohexane-1-sulphonic acid – potassium salt; 16 mg/kg; oral; Female; F344
Rat [26] = assay: concentration in liver after dosing; conditions: 48 h; dosed: Perfluorohexane-1-sulphonic acid – potassium salt; 16 mg/kg; oral; Female; Harlan Sprague Dawley
Rat [27] = assay: concentration in plasma after dosing; conditions: dosed: Pyridine, 5 mg/kg, iv, Male, F344
Rat [28] = assay: concentration in plasma after dosing; conditions: 20 h; dosed: Pyridine; 25 mg/kg; oral; Male; F344
Rat [29] = assay: concentration in plasma after dosing; conditions: 2 h; dosed: Pyridine; 5 mg/kg; iv; Male; F344
Rat [30] = assay: concentration in plasma after dosing; conditions: dosed: Methyleugenol, 37 mg/kg, oral, Male, F344/N
Rat [31] = assay: concentration in plasma after dosing; conditions: dosed: Methyleugenol, 37 mg/kg, iv, Male, F344

OCC(Cl)(Cl)Cl [trichloroethanol (free)]
rat [1]
Conditions | concentration in blood [ng/mL]
0.1894 h | 1660
0.429 h | 1600
0.9471 h | 1580
1.964 h | 1500
3.996 h | 1440
5.928 h | 1510
7.943 h | 1140
9.955 h | 1050
11.95 h | 1030
13.94 h | 1040
15.88 h | 449
17.91 h | 747

rat [1], during exposure
Conditions | concentration in blood [ng/mL]
-180 s | 1690
-2.968 h | 427
-1.958 h | 1200
-1.022 h | 1260

O=C(c1ccccc1)c1ccc(O)cc1O [2,4-Dihydroxybenzophenone]
Rat [2]
Conditions | concentration in plasma [ng/mL]
10 h | 203
10 min | 55.1

Conditions | concentration in plasma [ng/mL]
Mouse [3] | 318
Mouse [4] | 856
Mouse [6] | 32.7
Rat [5] | 713

CCC1(c2ccccc2)C(=O)NCNC1=O [Primidone]
Conditions | concentration in plasma [ng/mL]
Rat [7] | 68100
Rat [8] | 47900

O=C(O)COc1ccc(Cl)cc1Cl [2,4-Dichlorophenoxyacetic acid]
concentration in plasma [ng/mL]
Conditions | Mouse [10] | Mouse [11] | Rat [9]
0.25 h | 3740 | 7400 | 8070
0.5 h | 8570 | 5390 | 14500
1 h | – | 5370 | –
2 h | 2400 | 1290 | 4090
2.5 h | – | 211 | –
2.5 min | 2790 | 7760 | 7170
3 h | 929 | 248 | 3180
4 h | – | – | 3720
5 h | – | – | 4480
5 min | – | 6530 | –
6 h | – | – | 1890
10 min | 4900 | 9300 | 14700

CC(C)[C@]12CC(=O)[C@H](C)[C@H]1C2 [alpha-Thujone]
Conditions | concentration in brain [ng/g] | concentration in plasma [ng/mL]
Rat [12] | – | 243
Rat [13] | – | 11.3
Rat [14] | 731 | –
Rat [15] | 5490 | –
Rat [16] | – | 17.8
Rat [17] | – | 104
Rat [18] | 592 | –
Rat [19] | 416 | –

O=S(=O)([O-])C(F)(F)C(F)(F)C(F)(F)C(F)(F)C(F)(F)C(F)(F)F.[K+] [Perfluorohexane-1-sulphonic acid – potassium salt]
Conditions | concentration in brain [ng/g] | concentration in kidney [ng/g] | concentration in liver [ng/g]
Rat [20] | – | 31500 | –
Rat [21] | – | 36900 | –
Rat [22] | 1760 | – | –
Rat [23] | – | 39300 | –
Rat [24] | – | 1560 | –
Rat [25] | – | – | 78000
Rat [26] | – | – | 13300

c1ccncc1 [Pyridine]
Rat [27]
Conditions | concentration in plasma [ng/mL]
2 h | 2780
14 h | 89

Conditions | concentration in plasma [ng/mL]
Rat [28] | 4760
Rat [29] | 2920

C=CCc1ccc(OC)c(OC)c1 [Methyleugenol]
concentration in plasma [ng/mL]
Conditions | 2 min | 3 h | 4 h | 5 min
Rat [30] | 8.3 | – | 11.2 | –
Rat [31] | – | 226 | – | 28800
